{
  "source": "patent US9066865B2",
  "about": "“Pharmaceutical compositions for the treatment of inner ear disorders” (AURIS MEDICAL AG, priority 2005, dated 2015)",
  "key": {"[1]": {"assay": "in vitro release of Ketamine from hyaluronic acid gel into PBS (without membrane or Franz cell with filter/dialysis membrane)", "assay_type": "physicochemical", "experimental": "A hyaluronic acid solution (Hylumed, Genzyme Corp.) was prepared at concentrations of 5 and 7.5% in phosphate buffered saline (PBS). At 8%, handling of the gel had shown to be difficult due to the high viscosity. S-(+)-Ketamine hydrochloride (Sigma-Aldrich) was dissolved at a concentration of 2% (weight/weight) equivalent to 73 mM. To evaluate the importance of the drug load factor, concentrations of 0.5% and 2.5% were also tested. Release of the pharmacologically active agent was measured in PBS, a common receiver fluid for controlled release studies, either without any membrane or by using a filter membrane or a dialysis membrane (Spectropore) in a Franz cell (PermeGear). The membranes were employed to mimic the rate limiting membrane of the round window. The temperature of the fluid was maintained constant at body temperature. The bottom chamber of the Franz cell was filled with 5 ml of PBS as the receiver fluid. The receiver fluid contained a stir bar for continuous agitation. The upper chamber was filled with approximately 50 mg of gel and the cell assembled. At various time points, aliquots (typically 1 ml) were withdrawn and analyzed by UV spectrophotometry (Agilent 8453). The absorbance at 215 nm was measured and the concentration calculated using an extinction coefficient of 30 ml/mg cm. As the volume of the aliquot was known, the total amount released could be determined. Each time an aliquot was withdrawn, the same volume of PBS was placed back into the Franz cell chamber."}, "[2]": {"assay": "pharmacokinetic study: Ketamine in perilymph after 2.8% hyaluronic acid gel on the round window membrane", "assay_type": "in vivo", "details": "1 mM, guinea pig", "experimental": "In a second step, a pharmacokinetic study with pigmented guinea pigs was carried out in order to evaluate in vivo the diffusion of Ketamine from a hyaluronic acid gel formulation across the round window membrane into the inner ear. A total of 30 animals were tested for concentrations of the pharmaceutical compound in the perilymph at 1 hour, 3 hours, 8 hours, 24 hours and 72 hours following gel administration; 6 animals per time point were tested.\nAnimals were anaesthetized with a single-dose i.p. injection of 0.3 ml/kg of pentobarbital at 6% (Ceva sante animale), and the right ear bulla was opened using a posterior auricular surgical procedure (dorsal approach). 2 microliters of the hyaluronic gel formulation (2.8% Hylumed Sterile in artificial perilymph, molecular weight 2.44 million; Genzyme Corp.) with S-(+)-Ketamine (Sigma-Aldrich) at a concentration of 1 milliM were then deposited onto the round window membrane of the inner ear. At each of the aforementioned time points, one group of animals was decapitated under deep anaesthesia (pentobarbital 50 mg/kg). […] The samples were then analyzed by liquid chromatography mass spectrometry with a limit of quantification of 0.2 ng/ml (HPLC instrument: Perkin Elmer series 200; mass spectrometer detector: MSD Sciex API 4000 Applied Biosystems; column: Zorbax SB CN 50×2.1 mm 5 μm-Agilent technologies)."}, "[3]": {"system": "PCP binding site of the NMDA receptor", "details": "relative to (R)-ketamine; cited from earlier work"}},
  "data": [
    {"smiles": "CN[C@@]1(c2ccccc2Cl)CCCCC1=O", "note": "(stereo in doubt) [Ketamine, 2-(2-chlorophenyl)-2-(methylamino)-cyclohexanone]", "values": [
      {"measurement": "release rate at 7.5% hyaluronic acid compared with 5%", "setting": "[1]; 7.5% hyaluronic acid gel, rate limiting membrane", "value": "less quickly than at 5%"},
      {"measurement": "duration of release of Ketamine into PBS", "setting": "[1]; Franz cell with dialysis membrane", "value": "about three days"},
      {"measurement": "duration of release of Ketamine into PBS", "setting": "[1]; Franz cell with filter membrane", "value": "approximately 60 hours"},
      {"measurement": "release speed compared with Ketamine hydrochloride solution", "setting": "[1]; gel with 0.5% Ketamine by weight, Franz cell with filter membrane", "value": "nearly as fast as a simple Ketamine hydrochloride solution"},
      {"measurement": "amount released in the first hour (initial burst)", "setting": "[1]; gel with 2.5% Ketamine loading factor, Franz cell with filter membrane", "value": "about 20%"},
      {"measurement": "share of the total cumulative concentration in PBS achieved", "setting": "[1]; hyaluronic acid gel, no rate limiting membrane, after one hour", "value": "~50", "unit": "%"},
      {"measurement": "duration of release of Ketamine from hyaluronic acid gel", "setting": "[1]; no membrane", "value": "over just a few hours"},
      {"measurement": "time to maximum concentration of Ketamine in perilymph", "setting": "[2]; 2 microliters on round window membrane", "value": "within one hour"},
      {"measurement": "last quantifiable levels in perilymph", "setting": "[2]; LOQ 0.2 ng/ml", "value": "after three days"},
      {"measurement": "higher affinity to the PCP binding site of the NMDA receptor than (R)-ketamine", "setting": "[3]", "value": "3-4 fold"}
    ]}
  ]
}
